Test results from PubChem BioAssay (NCI).
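Values below derive from 48-hour exposures of cells grown in 96-well plates, with endpoints linearly interpolated between the two concentrations bracketing the appropriate inhibition level. GI50 = concentration required for 50% inhibition of growth. Definition used: TGI = concentration required for complete inhibition of growth.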

What was measured:
Assay in all cases: growth of human tumour cells (NCI), 48 h
[1] = tested on: ACHN renal
[2] = tested on: K-562 leukemia
[3] = tested on: M14 melanoma
[4] = tested on: MDA-MB-435
[5] = tested on: NCI/ADR-RES ovarian
[6] = tested on: PC-3 prostate
[7] = tested on: SK-OV-3 ovarian
[8] = tested on: SN12C renal
[9] = tested on: U251 CNS
[10] = tested on: UACC-257 melanoma

Row | Compound | GI50 [1] | TGI [1] | GI50 [2] | TGI [2] | GI50 [3] | TGI [3] | GI50 [4] | TGI [4] | GI50 [5] | TGI [5] | GI50 [6] | TGI [6] | GI50 [7] | TGI [7] | GI50 [8] | TGI [8] | GI50 [9] | TGI [9] | GI50 [10] | TGI [10]
1 | COc1ccc(C2NC(=S)NC3=C2CCOc2c3ccc3ccccc23)cc1 (centres undefined) | 69.3 µM | > 100 µM | 32.4 µM | > 100 µM | > 100 µM | > 100 µM | 36.4 µM | > 100 µM | 32.6 µM | > 100 µM | > 100 µM | > 100 µM | > 100 µM | > 100 µM | > 100 µM | > 100 µM | > 100 µM | > 100 µM | 16.4 µM | > 100 µM
2 | Cn1c(=O)c2c(nc(N/N=C/c3ccccc3C(=O)O)n2C)n(C)c1=O | – | > 100 µM | – | > 100 µM | – | > 100 µM | – | > 100 µM | – | > 100 µM | – | > 100 µM | – | > 100 µM | – | > 100 µM | – | > 100 µM | – | > 100 µM
3 | COc1ccc(-c2cc(/C=C/C(=O)c3ccc(N)cc3)[nH]n2)cc1 | 2.01 µM | 10.6 µM | 1.42 µM | 11.6 µM | 2.67 µM | 6.54 µM | 2.24 µM | 7 µM | 2.86 µM | 15.5 µM | 2.42 µM | 10.1 µM | 4.72 µM | 18 µM | 1.89 µM | 6.63 µM | 1.24 µM | 2.57 µM | 1.9 µM | 4.21 µM
4 | O=C(O)c1ccccc1NCn1c(=S)sc2ccccc21 | – | > 100 µM | – | > 100 µM | – | > 100 µM | – | > 100 µM | – | > 100 µM | – | > 100 µM | – | > 100 µM | – | > 100 µM | – | > 100 µM | – | > 100 µM
5 | NC(=O)/C(=C/n1cnc(-c2cc(C(F)(F)F)cc(C(F)(F)F)c2)n1)c1cncnc1 | 0.386 µM | 11.4 µM | 0.144 µM | 38.7 µM | 0.715 µM | 7.86 µM | 0.237 µM | 3.89 µM | 0.517 µM | 23.9 µM | 0.185 µM | 14.8 µM | 1.57 µM | 43.1 µM | 0.814 µM | 12.7 µM | 0.301 µM | 12.3 µM | 0.86 µM | 8.99 µM
6 | O=C1Nc2ccc3c(c2/C1=C\c1cc2c(cc1Br)OCO2)OCO3 | 0.689 µM | 6.55 µM | 0.179 µM | > 35.9 µM | 0.341 µM | 5.76 µM | 0.106 µM | 0.305 µM | 0.364 µM | 4.97 µM | 0.338 µM | 2.8 µM | 0.512 µM | 1.89 µM | 0.781 µM | 6.47 µM | 0.422 µM | 1.68 µM | 0.685 µM | –
7 | COc1ccccc1C(=O)N(Cc1ccccc1)c1ccc(Cl)c(C(=O)OC(C)C)c1 | – | 96.8 µM | – | > 100 µM | – | > 100 µM | – | > 100 µM | – | 85.6 µM | – | 75.3 µM | – | > 91.7 µM | – | > 100 µM | – | > 100 µM | – | > 88.7 µM
8 | COc1ccc(-c2csc(Nc3cccc(-c4csc(C)n4)c3)n2)cc1 | 0.859 µM | 18.6 µM | 0.137 µM | 0.507 µM | 2.79 µM | 14.2 µM | 0.366 µM | 1.02 µM | 0.534 µM | 4.19 µM | 1.97 µM | > 50 µM | 2.17 µM | > 50 µM | 0.97 µM | 7.96 µM | 0.783 µM | > 27.6 µM | 3.26 µM | 19.7 µM
9 | C[C@@H]1CCc2ncc(F)cc2[C@H]2CCCN2c2ccn3ncc(c3n2)C(=O)N1 | 65.9 µM | > 100 µM | 29.8 µM | > 100 µM | > 100 µM | > 100 µM | 83.1 µM | > 100 µM | > 100 µM | > 100 µM | > 100 µM | > 100 µM | 91.7 µM | > 100 µM | 44.1 µM | > 100 µM | > 100 µM | > 100 µM | > 100 µM | > 100 µM
10 | CCn1c(-c2nonc2N)nc2cnc(Oc3cccc(NC(=O)c4ccc(N(C)C)cc4)c3)cc21 | > 25 µM | > 25 µM | > 25 µM | > 25 µM | > 25 µM | > 25 µM | > 25 µM | > 25 µM | > 25 µM | > 25 µM | 12.4 µM | > 25 µM | > 13.7 µM | > 25 µM | > 25 µM | > 25 µM | > 25 µM | > 25 µM | > 25 µM | > 25 µM
11 | C=C1CC[C@H]2C(C)=CC[C@H]3C(=C)C(=O)O[C@@H]3[C@@H]12 | – | > 100 µM | – | > 100 µM | – | > 100 µM | – | > 100 µM | – | > 100 µM | – | > 100 µM | – | > 100 µM | – | > 100 µM | – | > 100 µM | – | > 100 µM
12 | CC(O)[C@H](NC(=O)N[C@@H](CC(N)=O)c1nc(N2CCNCC2)no1)C(=O)O (some centres undefined) | > 100 µM | > 100 µM | > 100 µM | > 100 µM | > 100 µM | > 100 µM | > 100 µM | > 100 µM | > 100 µM | > 100 µM | > 100 µM | > 100 µM | > 100 µM | > 100 µM | > 100 µM | > 100 µM | > 100 µM | > 100 µM | > 100 µM | > 100 µM
13 | O=[N+]([O-])/C=C/c1ccc(Cl)cc1[N+](=O)[O-] | 1.95 µM | 3.79 µM | 3.08 µM | 24.1 µM | 4.42 µM | 16.5 µM | 3.62 µM | 16.1 µM | 3.18 µM | 77.7 µM | 2.54 µM | 8.34 µM | 12.1 µM | 24.5 µM | 3.08 µM | 20.9 µM | 1.95 µM | 3.67 µM | 11.9 µM | 24.9 µM
